Key:
[1] = molecular target: T1, PPARα (Homo sapiens, UniProt Q07869); test: In vitro PPARα transactivation assay (Gal4-hPPARαLBD luciferase reporter in 293E cells); type: cell-based; conditions: 24 h; for PPARα Activation Fold: 10^−5 M, Csamples/Ccontrol, mean±SEM
T1 construct: pcDNA3.1-hPPARαLBD-Gal4DB; expressed in transfected cells; host or cells: 293E cells
T1 sequence (Q07869 239-466 limits assumed): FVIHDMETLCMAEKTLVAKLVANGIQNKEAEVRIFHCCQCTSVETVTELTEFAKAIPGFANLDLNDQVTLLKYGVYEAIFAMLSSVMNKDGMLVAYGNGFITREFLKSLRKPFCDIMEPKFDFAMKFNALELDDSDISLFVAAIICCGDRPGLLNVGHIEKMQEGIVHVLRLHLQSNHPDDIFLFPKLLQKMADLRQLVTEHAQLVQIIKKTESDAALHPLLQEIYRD

[2] = molecular target: T2, PPARγ (Homo sapiens, UniProt P37231); test: In vitro PPARγ transactivation assay (Gal4-hPPARγLBD luciferase reporter in 293E cells); conditions: 10^−5 M, 24 h, Csamples/Ccontrol, mean±SEM
T2 sequence (P37231 238-503 limits assumed): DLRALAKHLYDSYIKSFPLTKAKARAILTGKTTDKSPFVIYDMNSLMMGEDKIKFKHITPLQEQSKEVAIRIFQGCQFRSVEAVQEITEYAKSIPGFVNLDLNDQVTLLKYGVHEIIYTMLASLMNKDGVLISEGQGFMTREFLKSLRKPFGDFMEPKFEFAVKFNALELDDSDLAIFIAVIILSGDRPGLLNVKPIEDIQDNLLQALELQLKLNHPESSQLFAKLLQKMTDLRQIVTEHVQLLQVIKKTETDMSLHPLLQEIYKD

[3] = molecular target: T3, PPARδ (Homo sapiens, UniProt Q03181); test: In vitro PPARδ transactivation assay (Gal4-hPPARδLBD luciferase reporter in 293E cells); conditions: for PPARδ Activation Fold: 10^−5 M, 24 h, Csamples/Ccontrol, mean±SEM; for Cmax: read-out: Cmax, concentration at maximum efficiency percentage (Max%), PPARδ, 24 h, multiple concentrations
T3 sequence (Q03181 211-439 limits assumed): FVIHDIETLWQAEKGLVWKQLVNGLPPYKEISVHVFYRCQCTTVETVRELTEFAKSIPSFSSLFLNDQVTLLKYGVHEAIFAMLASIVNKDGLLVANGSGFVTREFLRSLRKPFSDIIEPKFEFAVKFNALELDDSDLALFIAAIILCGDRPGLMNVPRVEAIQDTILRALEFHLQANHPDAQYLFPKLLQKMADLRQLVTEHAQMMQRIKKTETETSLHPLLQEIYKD

[4] = molecular target: T3, PPARδ; test: cell-based
[5] = molecular target: T2, PPARγ
[6] = molecular target: T2, PPARγ; test: cell-based

Row | PPARα Activation Fold [1] | PPARγ Activation Fold [2] | PPARδ Activation Fold [3] | Cmax [5] | EC50 [6] | Compound | EC50 [4] | Cmax [3] | EC50 ([1]; multiple concentrations) | Cmax ([1]; multiple concentrations, read-out: Cmax, concentration at maximum efficiency percentage (Max%), PPARα)
1 | 0.76±0.04 | 1.30±0.06 | 1.28±0.06 |  |  | c1ccc2c(c1)ccn2CCOc1ccc(OCc2nn[nH]n2)cc1 [10a, 1-(2-(4-((2H-tetrazol-5-yl)methoxy)phenoxy)ethyl)-1H-indole] |  |  |  | 
2 | 0.55±0.03 | 1.26±0.22 | 1.39±0.21 |  |  | c1ccc2c(c1)c1ccccc1n2CCOc1ccc(OCc2nn[nH]n2)cc1 [10b, 9-(2-(4-((2H-tetrazol-5-yl)methoxy)phenoxy)ethyl)-9H-carbazole] |  |  |  | 
3 | 0.67±0.02 | 0.96±0.01 | 1.01±0.08 |  |  | c1ccc2c(c1)ccn2CCCOc1ccc(OCc2nn[nH]n2)cc1 [10c, 1-(3-(4-((2H-tetrazol-5-yl)methoxy)phenoxy)propyl)-1H-indole] |  |  |  | 
4 | 0.50±0.04 | 0.96±0.02 | 1.15±0.22 |  |  | c1ccc2c(c1)c1ccccc1n2CCCOc1ccc(OCc2nn[nH]n2)cc1 [10d, 9-(3-(4-((2H-tetrazol-5-yl)methoxy)phenoxy)propyl)-9H-carbazole] |  |  |  | 
5 | 1.91±0.13 | 1.93±0.23 | 1.26±0.15 |  |  | c1ccc(CCCOc2ccc(OCc3nn[nH]n3)cc2)cc1 [10e, 5-((4-(3-Phenylpropoxy)phenoxy)methyl)-2H-tetrazole] |  |  |  | 
6 | 0.80±0.02 | 1.24±0.07 | 1.02±0.09 |  |  | c1cncc(COc2ccc(OCc3nn[nH]n3)cc2)c1 [10f, 3-((4-((2H-tetrazol-5-yl)methoxy)phenoxy)methyl)pyridine] |  |  |  | 
7 | 0.90±0.05 | 2.83±0.49 | 0.83±0.04 |  |  | c1cc(OCCn2ccc3ccccc32)cc(OCc2nn[nH]n2)c1 [10g, 1-(2-(3-((2H-tetrazol-5-yl)methoxy)phenoxy)ethyl)-1H-indole] |  |  |  | 
8 | 0.81±0.02 | 26.81±1.56 | 1.16±0.05 | 30 µM | 6.97 µM | c1cc(OCCn2c3ccccc3c3ccccc32)cc(OCc2nn[nH]n2)c1 [10h, 9-(2-(3-((2H-tetrazol-5-yl)methoxy)phenoxy)ethyl)-9H-carbazole] |  |  |  | 
9 | 0.89±0.19 | 1.19±0.09 | 0.77±0.01 |  |  | c1cc(OCCCn2ccc3ccccc32)cc(OCc2nn[nH]n2)c1 [10i, 1-(3-(3-((2H-tetrazol-5-yl)methoxy)phenoxy)propyl)-1H-indole] |  |  |  | 
10 | 0.65±0.00 | 0.69±0.01 | 0.88±0.09 |  |  | c1cc(OCCCn2c3ccccc3c3ccccc32)cc(OCc2nn[nH]n2)c1 [10j, 9-(3-(3-((2H-tetrazol-5-yl)methoxy)phenoxy)propyl)-9H-carbazole] |  |  |  | 
11 | 0.74±0.09 | 1.46±0.20 | 1.24±0.17 |  |  | c1ccc(CCCOc2cccc(OCc3nn[nH]n3)c2)cc1 [10k, 5-((3-(3-Phenylpropoxy)phenoxy)methyl)-2H-tetrazole] |  |  |  | 

The remaining lines, values behind:

Row | Compound | PPARα Activation Fold [1] | PPARγ Activation Fold [2] | PPARδ Activation Fold [3] | Cmax [5] | EC50 [6] | EC50 [4] | Cmax [3] | EC50 ([1]; multiple concentrations) | Cmax ([1]; multiple concentrations, read-out: Cmax, concentration at maximum efficiency percentage (Max%), PPARα)
12 | CC(C)(Oc1ccc(OCCn2ccc3ccccc32)cc1)C(=O)O [6a, 2-(4-(2-(1H-indol-1-yl)ethoxy)phenoxy)-2-methylpropanoic acid] | 1.00±0.07 | 1.21±0.09 | 0.97±0.09 |  |  |  |  |  | 
13 | CC(C)(Oc1ccc(OCCn2c3ccccc3c3ccccc32)cc1)C(=O)O [6b, 2-(4-(2-(9H-carbazol-9-yl)ethoxy)phenoxy)-2-methylpropanoic acid] | 0.80±0.00 | 1.19±0.00 | 1.23±0.07 |  |  |  |  |  | 
14 | CC(C)(Oc1ccc(OCCCn2ccc3ccccc32)cc1)C(=O)O [6c, 2-(4-(3-(1H-indol-1-yl)propoxy)phenoxy)-2-methylpropanoic acid] | 1.78±0.10 | 1.40±0.18 | 0.94±0.02 |  |  |  |  |  | 
15 | CC(C)(Oc1ccc(OCCCn2c3ccccc3c3ccccc32)cc1)C(=O)O [6d, 2-(4-(3-(9H-carbazol-9-yl)propoxy)phenoxy)-2-methylpropanoic acid] | 1.96±0.17 | 1.57±0.00 | 1.13±0.03 |  |  |  |  |  | 
16 | CC(C)(Oc1ccc(OCCCn2cnc3ccccc32)cc1)C(=O)O [6e, 2-(4-(3-(1H-benzo[d]imidazol-1-yl)propoxy)phenoxy)-2-methylpropanoic acid] | 1.38±0.06 | 1.26±0.01 | 7.09±0.97 |  |  | 11.1 nM | 100 nM |  | 
17 | CC(C)(Oc1cccc(OCC(=O)c2ccccc2)c1)C(=O)O [6f, 2-Methyl-2-(3-(2-oxo-2-phenylethoxy)phenoxy)propanoic acid] | 1.58±0.09 | 1.22±0.01 | 1.27±0.09 |  |  |  |  |  | 
18 | CC(C)(Oc1cccc(OCCn2c3ccccc3c3ccccc32)c1)C(=O)O [6g, 2-(3-(2-(9H-carbazol-9-yl)ethoxy)phenoxy)-2-methylpropanoic acid] | 1.40±0.27 | 18.55±0.06 | 1.28±0.11 | 50 µM | 11.8 µM |  |  |  | 
19 | CC(C)(Oc1cccc(OCCCn2ccc3ccccc32)c1)C(=O)O [6h, 2-(3-(3-(1H-indol-1-yl)propoxy)phenoxy)-2-methylpropanoic acid] | 3.81±0.83 | 1.57±0.25 | 0.78±0.15 |  |  |  |  | 5.3 µM | 10 µM
20 | CC(C)(Oc1cccc(OCCCn2c3ccccc3c3ccccc32)c1)C(=O)O [6i, 2-(3-(3-(9H-carbazol-9-yl)propoxy)phenoxy)-2-methylpropanoic acid] | 1.32±0.22 | 2.87±0.33 | 0.88±0.13 |  |  |  |  |  | 
21 | CC(C)(Oc1cccc(OCCCn2cnc3ccccc32)c1)C(=O)O [6j, 2-(3-(3-(1H-benzo[d]imidazol-1-yl)propoxy)phenoxy)-2-methylpropanoic acid] | 0.97±0.15 | 1.17±0.00 | 0.86±0.03 |  |  |  |  |  | 
22 | CC(C)(Oc1cccc(OCCCc2ccccc2)c1)C(=O)O [6k, 2-Methyl-2-(3-(3-phenylpropoxy)phenoxy)propanoic acid] | 1.50±0.08 | 1.62±0.11 | 0.99±0.22 |  |  |  |  |  | 
23 | CC(C)(Oc1cccc(OCc2cccnc2)c1)C(=O)O [6l, 2-Methyl-2-(3-(pyridin-3-ylmethoxy)phenoxy)propanoic acid] | 1.39±0.21 | 1.34±0.01 | 6.60±0.90 |  |  | 1.9 nM | 100 nM |  | 
24 | CC(C)(Oc1ccc(OCCCc2ccccc2)cc1)C(=O)O [6m, 2-Methyl-2-(4-(3-phenylpropoxy)phenoxy)propanoic acid] | 2.01±0.22 | 2.26±0.18 | 1.73±0.03 |  |  |  |  |  | 
25 | CC(C)(Oc1ccc(OCC(=O)c2ccccc2)cc1)C(=O)O [6n, 2-Methyl-2-(4-(2-oxo-2-phenylethoxy)phenoxy)propanoic acid] | 1.16±0.02 | 1.31±0.12 | 1.24±0.06 |  |  |  |  |  | 
26 | CC(C)(Oc1cccc(OCCn2ccc3ccccc32)c1)C(=O)O [6o, 2-(3-(2-(1H-indol-1-yl)ethoxy)phenoxy)-2-methylpropanoic acid] | 1.01±0.11 | 3.01±0.16 | 1.00±0.24 |  |  |  |  |  | 
27 | c1cncc(COc2cccc(OCc3nn[nH]n3)c2)c1 [10l, 3-((3-((2H-tetrazol-5-yl)methoxy)phenoxy)methyl)pyridine] | 1.15±0.06 | 1.07±0.03 | 9.56±2.50 |  |  | 27.3 nM | 100 nM |  | 

From publication PMC5400543, “Design, sythesis and evaluation of a series of 3- or 4-alkoxy substituted phenoxy derivatives as PPARs agonists” (Oncotarget, 2017)
